Experimental data published in patent US9464060B2, “Compounds” (TAKEDA PHARMACEUTICAL COMPANY LIMITED, priority 2013, dated 2016).

What was measured:
LPA5 receptor = LPA5 receptor (Homo sapiens (Human), UniProt Q9H1C0); assay: In vitro LPA5 receptor assay (LPA-driven intracellular calcium release, FLIPR); assay type: cell-based; details: RH7777 cells expressing human LPA5 receptors; LPA at EC90
Procedure: In Vitro LPA5 Receptor Assay
(§1) Engagement of the LPA5 receptor by its ligand, oleoyl-L-α-lysophosphatidic acid (LPA), leads to the release of intracellular stores of calcium into the cytoplasm mediated through a Gq-driven increase in inositol triphosphate (IP3) levels. Gq is a heterotrimeric G protein subunit that activates phospholipase C.
The ability of test compounds to prevent LPA-driven intracellular release of stored calcium from RH7777 cells expressing human LPA5 receptors was assayed by stimulating the cells with LPA in the presence of various test compounds to measure the test compounds'antagonism, i.e. activity in vitro.
(§2) Approximately 10,000 cells in normal culture medium (Minimal Essential Media, 10% Foetal Calf Serum) were dispensed per assay well in a black clear bottom poly-D-lysine coated 384 well plate (Corning). Cells were allowed to settle for thirty minutes at room temperature before being incubated overnight at 37° C., 5% CO2. Sixteen to twenty hours after dispensing, the cells were loaded with a calcium-sensitive fluorescent dye by replacing the culture medium with assay buffer (1× Hanks buffered saline, 25 mM HEPES, 0.1% w/v fatty acid free BSA (bovine serum albumin), pH7.4) containing 1.25 mM probenecid and 1× Calcium 5 Reagent (Molecular Devices). Cells were incubated at 37° C. for one hour to allow for dye uptake.
(§3) To test for antagonist activity, test compounds at a final concentration range between 0.32 nM-10 μM (diluted in assay buffer) were added to the assay wells and allowed to incubate for fifteen minutes. […] Ligand-dependent changes in intracellular calcium levels were determined by measuring changes in fluorescence of the dye over […] following excitation over […].

human LPA1 receptors = human LPA1 receptors (Homo sapiens (Human), UniProt Q92633); assay: In vitro LPA1 receptor assay (LPA-driven intracellular calcium release, FLIPR); assay type: cell-based; details: RH7777 cells expressing human LPA1 receptors; LPA at EC80
Procedure: In Vitro LPA1 Receptor Assay
as §1, with “LPA1” for “LPA5”
The ability of test compounds to prevent LPA-driven intracellular release of stored calcium from RH7777 cells expressing human LPA1 receptors was assayed by stimulating the cells with LPA in the presence of various test compounds to measure the test compounds' antagonism, i.e. activity in vitro.
as §2, with “(Dulbecco's Modified Eagle” for “(Minimal Essential”, “collagen” for “poly-D-lysine”, “(Beckton Dickinson).” for “(Corning).”
as §3, with “twenty five” for “fifteen”

Chain of human LPA1 receptors (Q92633 whole entry): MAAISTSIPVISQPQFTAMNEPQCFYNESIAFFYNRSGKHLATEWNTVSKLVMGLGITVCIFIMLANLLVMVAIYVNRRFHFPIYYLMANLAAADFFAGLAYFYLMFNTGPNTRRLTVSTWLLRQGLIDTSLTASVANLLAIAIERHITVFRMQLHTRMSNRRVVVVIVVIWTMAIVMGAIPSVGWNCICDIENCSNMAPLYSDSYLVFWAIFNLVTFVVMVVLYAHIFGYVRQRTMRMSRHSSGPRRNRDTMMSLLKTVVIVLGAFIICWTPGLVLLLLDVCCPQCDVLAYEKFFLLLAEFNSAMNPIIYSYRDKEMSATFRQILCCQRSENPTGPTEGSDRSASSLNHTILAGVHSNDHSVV
Chain of LPA5 receptor (Q9H1C0 whole entry): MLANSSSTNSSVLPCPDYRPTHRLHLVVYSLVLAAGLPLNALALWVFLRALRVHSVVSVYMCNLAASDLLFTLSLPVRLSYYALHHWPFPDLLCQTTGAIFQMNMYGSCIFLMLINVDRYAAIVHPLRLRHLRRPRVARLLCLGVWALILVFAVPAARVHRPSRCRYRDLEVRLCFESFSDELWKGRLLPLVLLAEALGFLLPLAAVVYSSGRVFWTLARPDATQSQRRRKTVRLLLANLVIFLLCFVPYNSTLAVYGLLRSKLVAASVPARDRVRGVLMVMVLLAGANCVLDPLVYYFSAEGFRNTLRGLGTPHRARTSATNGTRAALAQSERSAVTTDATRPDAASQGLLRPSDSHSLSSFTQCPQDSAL

Row | IC50 (LPA5 receptor) [nM] | IC50 (human LPA1 receptors) [nM] | SMILES
1 | 17 | – | O=C(O)c1ccc(CN(CC2CC2)C(=O)c2ccc(Oc3c(F)cccc3Cl)cc2)cc1 [Example 42, 4-((4-(2-Chloro-6-fluorophenoxy)-N-(cyclopropylmethyl)-benzamido)methyl)benzoic acid]
2 | 58 | – | O=C(O)c1ccc(CN(Cc2ccccc2)C(=O)c2ccc(OCc3ccccc3F)cc2)cc1 [Example 53, 4-((N-Benzyl-4-((2-fluorobenzyl)oxy)benzamido)methyl)benzoic acid]
3 | 7 | – | O=C(O)c1ccc(CN(CC2CC2)C(=O)c2ccc(Oc3ccccc3Cl)cc2)cc1 [Example 35, 4-((4-(2-Chlorophenoxy)-N-(cyclopropylmethyl)benzamido)-methyl)benzoic acid]
4 | 370 | – | O=C(O)c1ccc(CN(CC2CCC2)C(=O)c2ccc(OCc3ccccc3F)cc2)cc1 [Example 52, 4-((N-(Cyclobutylmethyl)-4-((2-fluorobenzyl)oxy)benzamido)-methyl)benzoic acid]
5 | 44 | – | Cc1ccccc1Oc1ccc(C(=O)N(Cc2ccc(C(=O)O)cc2)CC2CCC2)cc1 [Example 23, 4-((N-(Cyclobutylmethyl)-4-(o-tolyloxy)benzamido)methyl)benzoic acid]
6 | 24 | – | O=C(O)c1ccc(CN(CC2CCC2)C(=O)c2ccc(Oc3ccccc3F)cc2)cc1 [Example 6, 4-((N-(Cyclobutylmethyl)-4-(2-fluorophenoxy)benzamido)-methyl)benzoic acid]
7 | 89 | – | Cc1cccc(F)c1Oc1ccc(C(=O)N(Cc2ccc(C(=O)O)cc2)CC2CCC2)cc1 [Example 41, 4-((N-(Cyclobutylmethyl)-4-(2-fluoro-6-methylphenoxy)benzamido)methyl)benzoic acid]
8 | 31 | – | COC1CC(CN(Cc2ccc(C(=O)O)cc2)C(=O)c2ccc(Oc3ccccc3F)cc2)C1 (centres unmarked) [Example 7, 4-((4-(2-Fluorophenoxy)-N-((3-methoxycyclobutyl)methyl)-benzamido)methyl)benzoic acid]
9 | 840 | – | CCN(Cc1ccc(C(=O)O)cc1)C(=O)c1ccc(Oc2ccccc2F)cc1 [Example 1, 4-((N-Ethyl-4-(2-fluorophenoxy)benzamido)methyl)benzoic acid]
10 | 15 | – | O=C(O)c1ccc(CN(CCC2CC2)C(=O)c2ccc(Oc3ccccc3F)cc2)cc1 [Example 9, 4-((N-(2-Cyclopropylethyl)-4-(2-fluorophenoxy)benzamido)-methyl)benzoic acid]
11 | 460 | – | CCOc1ccccc1Oc1ccc(C(=O)N(Cc2ccc(C(=O)O)cc2)CC2CC2)cc1 [Example 34, 4-((N-(Cyclopropylmethyl)-4-(2-ethoxyphenoxy)-benzamido)methyl)benzoic acid]
12 | 53 | – | O=C(O)c1ccc(CN(CC2CC2)C(=O)c2ccc(OCc3ccccc3F)cc2)cc1 [Example 51, 4-((N-(Cyclopropylmethyl)-4-((2-fluorobenzyl)oxy)benzamido)-methyl)benzoic acid]
13 | 48 | – | O=C(O)c1ccc(CN(CCC2CCC2)C(=O)c2ccc(Oc3ccccc3F)cc2)cc1 [Example 10, 4-((N-(2-Cyclobutylethyl)-4-(2-fluorophenoxy)benzamido)-methyl)benzoic acid]

The remaining lines, values behind:

Row | SMILES | IC50 (LPA5 receptor) [nM] | IC50 (human LPA1 receptors) [nM]
14 | O=C(O)c1ccc(CN(Cc2ccccc2)C(=O)c2ccc(Oc3c(F)cccc3Cl)cc2)cc1 [Example 44, 4-((N-Benzyl-4-(2-chloro-6-fluorophenoxy)benzamido)-methyl)benzoic acid] | 11 | –
15 | COc1ccccc1Oc1ccc(C(=O)N(Cc2ccc(C(=O)O)cc2)CC2CC2)nc1 [Example 69, 4-((N-(Cyclopropylmethyl)-5-(2-methoxyphenoxy)-picolinamido)methyl)benzoic acid] | 8 | 12
16 | O=C(O)c1ccc(CN(CCCc2cccc(F)c2)C(=O)c2ccc(Oc3ccccc3F)cc2)cc1 [Example 17, 4-((4-(2-Fluorophenoxy)-N-(3-(3-fluorophenyl)propyl)benzamido)methyl)benzoic acid] | 1 | 0.4
17 | COc1cccc(Oc2ccc(C(=O)N(CCc3ccccc3)Cc3ccc(C(=O)O)cc3)cc2)c1 [Example 48, 4-((4-(3-Methoxyphenoxy)-N-phenethylbenzamido)methyl)benzoic acid] | 3300 | –
18 | CCN(Cc1ccc(C(=O)O)cc1)C(=O)c1ccc(Oc2ccccc2C)cc1 [Example 73, 4-((N-Ethyl-4-(o-tolyloxy)benzamido)methyl)benzoic acid] | 890 | 120
19 | O=C(O)c1ccc(CN(CCc2ccccc2)C(=O)c2ccc(Oc3ccccc3F)cc2)cc1 [Example 15, 4-((4-(2-Fluorophenoxy)-N-phenethylbenzamido)methyl)benzoic acid] | 120 | –
20 | O=C(O)c1ccc(CN(CCc2ccccc2)C(=O)c2ccc(Oc3ccccc3C(F)(F)F)cc2)cc1 [Example 26, 4-((N-Phenethyl-4-(2-(trifluoromethyl)phenoxy)benzamido)-methyl)benzoic acid] | 260 | –
21 | O=C(O)c1ccc(CN(CC(F)F)C(=O)c2ccc(Oc3ccccc3F)cc2)cc1 [Example 2, 4-((N-(2,2-Difluoroethyl)-4-(2-fluorophenoxy)benzamido)-methyl)benzoic acid] | 690 | –
22 | O=C(O)c1ccc(CN(CCc2ccccc2)C(=O)c2ccc(Oc3cccc(Cl)c3)cc2)cc1 [Example 50, 4-((4-(3-Chlorophenoxy)-N-phenethylbenzamido)methyl)benzoic acid] | 3600 | –
23 | O=C(O)c1ccc(CN(CCCCc2ccccc2)C(=O)c2ccc(Oc3ccccc3F)cc2)cc1 [Example 21, 4-((4-(2-Fluorophenoxy)-N-(4-phenylbutyl)-benzamido)methyl)benzoic acid] | 11 | –
24 | O=C(O)c1ccc(CN(Cc2ccccc2F)C(=O)c2ccc(Oc3ccccc3F)cc2)cc1 [Example 12, 4-((N-(2-Fluorobenzyl)-4-(2-fluorophenoxy)benzamido)-methyl)benzoic acid] | 9 | –
25 | COc1ccccc1O[C@H]1CC[C@H](C(=O)N(Cc2ccccc2)Cc2ccc(C(=O)O)cc2)CC1 [Example 56, trans-4-((N-Benzyl-4-(2-methoxyphenoxy)cyclohexanecarboxamido)methyl)benzoic acid] | 180 | –
26 | O=C(O)c1ccc(CN(CCCc2ccccc2F)C(=O)c2ccc(Oc3ccccc3F)cc2)cc1 [Example 16, 4-((4-(2-Fluorophenoxy)-N-(3-(2-fluorophenyl)propyl)benzamido)methyl)benzoic acid] | 1 | –
27 | N#Cc1ccccc1Oc1ccc(C(=O)N(Cc2ccccc2)Cc2ccc(C(=O)O)cc2)cc1 [Example 27, 4-((N-Benzyl-4-(2-cyanophenoxy)benzamido)methyl)benzoic acid] | 200 | –
28 | COc1cccc(CN(Cc2ccc(C(=O)O)c(F)c2)C(=O)c2ccc(Oc3ccccc3F)cc2)c1 [Example 59, 2-Fluoro-4-((4-(2-fluorophenoxy)-N-(3-methoxybenzyl)benzamido)methyl)benzoic acid] | 6 | –
29 | O=C(O)c1ccc(CN(Cc2ccccc2)C(=O)c2ccc(Oc3c(F)cccc3F)cc2)cc1 [Example 39, 4-((N-Benzyl-4-(2,6-difluorophenoxy)benzamido)methyl)benzoic acid] | 11 | –
30 | COc1ccc(Oc2ccc(C(=O)N(CCc3ccccc3)Cc3ccc(C(=O)O)cc3)cc2)cc1 [Example 49, 4-((4-(4-Methoxyphenoxy)-N-phenethylbenzamido)methyl)benzol acid] | 4600 | –
31 | O=C(O)c1ccc(CN(Cc2ccccc2)C(=O)C2CCC(Oc3ccccc3F)CC2)cc1 (centres unmarked) [Example 55, 4-((N-Benzyl-4-(2-fluorophenoxy)cyclohexanecarboxamido)-methyl)benzoic acid] | 690 | –
32 | O=C(O)c1ccc(CN(CCC2CC2)C(=O)c2ccc(Oc3c(F)cccc3Cl)cc2)cc1 [Example 43, 4-((4-(2-Chloro-6-fluorophenoxy)-N-(2-cyclopropylethyl)-benzamido)methyl)benzoic acid] | 58 | –
